According to US10597388B2, “Pyridazinone herbicides” (FMC CORPORATION, priority 2014, dated 2020):
Where two headings read alike, the source gives them in different places.

Tests used:
Assay type in all cases: in vivo
[1] = system: dayflower (Virginia (VA) dayflower, Commelina virginica); assay: Test E greenhouse herbicide test, pre- and postemergence
In short: (§1)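 Compounds in surfactant-containing solvent are applied to soil right after sowing (silt loam) and, in parallel, to 1- to 4-leaf plants in a peat-based medium. Weed control is scored visually on a 0 (none) to 100 (complete) scale at 14 to 21 d.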

[2] = system: foxtail, green (green foxtail, Setaria viridis); assay: as above; conditions: Preemergence
In short: as §1

[3] = system: pigweed, palmer (palmer pigweed, Amaranthus palmeri); assay: as above
In short: as §1

[4] = system: Italian ryegrass (Lolium multiflorum); assay: as above
In short: as §1

[5] = system: wild poinsettia (Euphorbia heterophylla); assay: as above
In short: as §1

[6] = system: lambsquarters (Chenopodium album); assay: as above; conditions: Preemergence
In short: as §1

[7] = system: crabgrass, large (large crabgrass, Digitaria sanguinalis); assay: Test A greenhouse herbicide test, pre- and postemergence; conditions: Digitaria sanguinalis, 240 h; for pest or weed control at 125 g/ha: 125 g ai/ha; for pest or weed control at 500 g/ha: 500 g ai/ha, 0 to 100 scale
In short: (§2)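 Visual injury ratings, 0 (no effect) to 100 (complete control), versus untreated plants after roughly 10 d in a greenhouse. Compounds, formulated in a surfactant-containing non-phytotoxic solvent, were sprayed on loam–sand soil after sowing (pre) or on one- to two-leaf plants 2–10 cm tall (post).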

[8] = system: momingglory (Ipomoea spp.); assay: as above; conditions: Ipomoea, 240 h; for pest or weed control at 125 g/ha: 125 g ai/ha; for pest or weed control at 500 g/ha: 500 g ai/ha, 0 to 100 scale
In short: as §2

[9] = system: velvetleaf (Abutilon theophrasti); assay: as above; conditions: Abutilon theophrasti, 240 h; for pest or weed control at 125 g/ha: 125 g ai/ha; for pest or weed control at 500 g/ha: 500 g ai/ha, 0 to 100 scale
In short: as §2

[10] = 62 g ai/ha, Postemergence, scale 0 to 100 (0 no effect, 100 complete control)
[11] = 62 g ai/ha, Preemergence, scale 0 to 100 (0 no effect, 100 complete control)
[12] = 125 g ai/ha, Postemergence, scale 0 to 100 (0 no effect, 100 complete control)
[13] = 250 g ai/ha, Postemergence, scale 0 to 100 (0 no effect, 100 complete control)
[14] = Postemergence, 16 g ai/ha, visual, scale 0 no effect to 100 complete control
[15] = Postemergence, 31 g ai/ha, visual, scale 0 no effect to 100 complete control
[16] = Preemergence, 16 g ai/ha, scale 0 to 100, 0 no effect, 100 complete control
[17] = Preemergence, 31 g ai/ha, scale 0 to 100, 0 no effect, 100 complete control
[18] = Preemergence, 250 g ai/ha, visual, scale 0 no effect to 100 complete control
[19] = 62 g ai/ha, scale 0 to 100 (0 no effect, 100 complete control)
[20] = 16 g ai/ha, scale 0 to 100, 0 no effect, 100 complete control
[21] = 31 g ai/ha, scale 0 to 100, 0 no effect, 100 complete control
[22] = 125 g ai/ha, visual, scale 0 no effect to 100 complete control
[23] = 250 g ai/ha, visual, scale 0 no effect to 100 complete control
[24] = 125 g ai/ha, Preemergence, scale 0 to 100 (0 no effect, 100 complete control)

Cc1cc(C)c2sc(C)c(-c3c(O)c(C)nn(C)c3=O)c2c1 [Compound 2, 5-hydroxy-2,6-dimethyl-4-(2,5,7-trimethylbenzo[b]thien-3-yl)-3(2H)-pyridazinone]
90: Plant response rating, Dayflower, VA [1, 18] | Plant response rating, Pigweed, Palmer [3, 24]
25: Plant response rating, Dayflower, VA ([1]; Preemergence, 125 g ai/ha, visual, scale 0 no effect to 100 complete control) | Plant response rating, Poinsettia, Wild [5, 17]
100: Plant response rating, Pigweed, Palmer [3, 18] | Plant response rating, Ryegrass, Italian [4, 24] | Plant response rating, Ryegrass, Italian [4, 18] | Plant response rating, Lambsquarters [6, 21] | Plant response rating, Lambsquarters [6, 23]
50: Plant response rating, Pigweed, Palmer [3, 11] | Plant response rating, Pigweed, Palmer [3, 15] | Plant response rating, Ryegrass, Italian [4, 10] | Plant response rating, Ryegrass, Italian [4, 16] | Plant response rating, Poinsettia, Wild [5, 18] | Plant response rating, Lambsquarters [6, 20]
65: Plant response rating, Dayflower, VA [1, 12] | Plant response rating, Dayflower, VA [1, 13] | Plant response rating, Ryegrass, Italian [4, 12]
90%: pest or weed control at 125 g/ha ([7]; pre-emergence, Preemergence, 0 to 100 scale where 0 is no effect and 100 is complete control, read-out: Crabgrass, Large plant response rating) | pest or weed control at 500 g/ha ([9]; pre-emergence, Preemergence, 0 no effect, 100 complete control, read-out: Plant response rating, Velvetleaf)
35: Plant response rating, Foxtail, Green [2, 21] | Plant response rating, Pigweed, Palmer [3, 13]
30: Plant response rating, Ryegrass, Italian [4, 15] | Plant response rating, Poinsettia, Wild [5, 11] | Plant response rating, Poinsettia, Wild [5, 24]
0: Plant response rating, Dayflower, VA [1, 14] | Plant response rating, Dayflower, VA [1, 16] | Plant response rating, Foxtail, Green [2, 20] | Plant response rating, Pigweed, Palmer [3, 14] | Plant response rating, Pigweed, Palmer [3, 16] | Plant response rating, Poinsettia, Wild [5, 10] | Plant response rating, Poinsettia, Wild [5, 14] | Plant response rating, Poinsettia, Wild [5, 15] | Plant response rating, Poinsettia, Wild [5, 16]
70%: pest or weed control at 500 g/ha ([7]; post-emergence, Postemergence, 0 is no effect, 100 is complete control, read-out: Crabgrass, Large plant response rating)
75: Plant response rating, Ryegrass, Italian [4, 13]
50%: pest or weed control at 125 g/ha ([7]; post-emergence, Postemergence, visual rating after approx. 10 d, 0 to 100 scale (0 no effect, 100 complete control), read-out: Plant response rating, Crabgrass, Large)
15: Plant response rating, Dayflower, VA [1, 10] | Plant response rating, Dayflower, VA [1, 17] | Plant response rating, Poinsettia, Wild [5, 12] | Plant response rating, Poinsettia, Wild [5, 13]
5: Plant response rating, Pigweed, Palmer [3, 10] | Plant response rating, Pigweed, Palmer [3, 12]
98: Plant response rating, Foxtail, Green [2, 23] | Plant response rating, Ryegrass, Italian [4, 11] | Plant response rating, Lambsquarters [6, 19] | Plant response rating, Lambsquarters [6, 22]
20: Plant response rating, Dayflower, VA [1, 11] | Plant response rating, Dayflower, VA [1, 15] | Plant response rating, Pigweed, Palmer [3, 17] | Plant response rating, Ryegrass, Italian [4, 14]
95: Plant response rating, Foxtail, Green [2, 19] | Plant response rating, Foxtail, Green [2, 22] | Plant response rating, Ryegrass, Italian [4, 17]
100%: pest or weed control at 500 g/ha ([7]; pre-emergence, Preemergence, 0 no effect, 100 complete control, read-out: Plant response rating, Crabgrass, Large) | pest or weed control at 125 g/ha ([8]; post-emergence, Postemergence, visual rating after approx. 10 d, 0 to 100 scale (0 no effect, 100 complete control), read-out: Plant response rating, Morningglory) | pest or weed control at 500 g/ha ([8]; post-emergence, Postemergence, 0 is no effect, 100 is complete control, read-out: Morningglory plant response rating) | pest or weed control at 500 g/ha ([8]; pre-emergence, Preemergence, 0 no effect, 100 complete control, read-out: Plant response rating, Morningglory) | pest or weed control at 125 g/ha ([9]; post-emergence, Postemergence, visual rating after approx. 10 d, 0 to 100 scale (0 no effect, 100 complete control), read-out: Plant response rating, Velvetleaf) | pest or weed control at 500 g/ha ([9]; post-emergence, Postemergence, 0 is no effect, 100 is complete control, read-out: Velvetleaf plant response rating)
80%: pest or weed control at 125 g/ha ([8]; pre-emergence, Preemergence, 0 to 100 scale where 0 is no effect and 100 is complete control, read-out: Morningglory plant response rating) | pest or weed control at 125 g/ha ([9]; pre-emergence, Preemergence, 0 to 100 scale where 0 is no effect and 100 is complete control, read-out: Velvetleaf plant response rating)
